Data reported in patent US5668131A, “Substituted aminoalkylaminopyridines” (BYK Gulden Lomberg Chemische Fabrik GmbH, priority 1993, dated 1997).
Where a name gives a salt, the structure may show the parent alone.

Test system: Helicobacter pylori
Experiment: Activity on Helicobacter pylori (MIC, Columbia agar, 4 days growth period)
Assay type: cell-based
Conditions: Columbia agar (Oxoid), growth period of 4 days; for MIC: Helicobacter pylori, 96 h

SMILES	MIC [µg/mL]	MIC-Value [µg/mL]
COc1cc2c(cc1OC)CN(CCCN(C)c1ccnc(CSc3nc4ccccc4[nH]3)c1Cl)CC2 [Compound 20, 2-{3-Chloro-4-{N-[3-(6,7-dimethoxy-1,2,3,4-tetrahydro-2-isoquinolinyl)-propyl]-N-methylamino}-2-pyridyl}-methylthio-1H-benzimidazole trihydrochloride]	< 1	
CN(CCCN1CCc2ccccc2C1)c1ccnc(CSc2nc3ccccc3[nH]2)c1Cl [Compound 18, 2-{3-Chloro-4-{N-[3-(1,2,3,4-tetrahydro-2-isoquinolinyl)-propyl]-N-methylamino}-2-pyridyl}-methylthio-1H-benzimidazole trihydrochloride]	< 1	
CN(CCN1CCN(Cc2ccccc2)CC1)c1ccnc(CSc2nc3ccccc3[nH]2)c1Cl [Compound 16, 2-{3-Chloro-4-{N-[2-(4-benzylpiperazino)-ethyl]-N-methylamino}-2-pyridyl}-methylthio-1H-benzimidazole trihydrochloride]	< 1	
COc1cc2c(cc1OC)CN(CCN(C)c1ccnc(CSc3nc4ccccc4[nH]3)c1Cl)CC2 [Compound 14, 2-{3-Chloro-4-{N-[2-(6,7-dimethoxy-1,2,3,4-tetrahydro-2-isoquinolinyl)ethyl]-N-methylamino}-2-pyridyl}-methylthio-1H-benzimidazole]	< 1	
CN(CCN1CCCCC1)c1ccnc(CSc2nc3ccccc3[nH]2)c1Cl [Compound 13, 2-{3-Chloro-4-[N-(2-piperidinoethyl)-N-methylamino]-2-pyridyl}-methylthio-1H-benzimidazole]	< 1	
CN(CCN(C)c1ccnc(CSc2nc3ccccc3[nH]2)c1Cl)Cc1ccccc1 [Compound 6, 2-{3-Chloro-4-{N-[2-(N-benzyl-N-methylamino)-ethyl]-N-methylamino}-2-pyridyl}-methylthio-1H-benzimidazole trihydrochloride]	< 1	
CN(CCN1CCC(Cc2ccccc2)CC1)c1ccnc(CSc2nc3ccccc3[nH]2)c1Cl [Compound 12, 2-{3-Chloro-4-{N-[2-[4-benzyl-piperidino)-ethyl]-N-methylamino}-2-pyridyl}-methylthio-1H-benzimidazole]	< 1	
COc1ccccc1N1CCN(CCN(C)c2ccnc(CSc3nc4ccccc4[nH]3)c2Cl)CC1 [Compound 17, 2-{3-Chloro-4-{N-[2-(4-(2-methoxyphenyl)-piperazino)-ethyl]-N-methylamino}-2-pyridyl}-methylthio-1H-benzimidazole trihydrochloride]	< 1	
CN(CCN1CCc2ccccc2C1)c1ccnc(CSc2nc3ncccc3[nH]2)c1Cl [Compound 5, 2-{3-Chloro-4-{N-[2-(1,2,3,4-tetrahydro-2-isoquinolinyl)ethyl]-N-methylamino)-2-pyridyl}-methylthio-1H-imidazo[5,4-b]pyridine]	< 1	
CN(CCc1ccccc1)CCN(C)c1ccnc(CSc2nc3ccccc3[nH]2)c1Cl [Compound 9, 2-{3-Chloro-4-{N-[2-(N-methyl-N-phenethylamino)-ethyl]-N-methylamino}-2-pyridyl}-methylthio-1H-benzimidazole trihydrochloride]	< 1	
CN(CCN1CCc2ccccc2C1)c1ccnc(CSc2nc3ccccc3[nH]2)c1Cl [Compound 2, 2-{3-Chloro-4-{N-[2-(1,2,3,4-tetrahydro-2-isoquinolinyl)ethyl]-N-methylamino}-2-pyridyl}-methylthio-1H-benzimidazole trihydrochloride]	< 1	
CN(CCCN1CCC(Cc2ccccc2)CC1)c1ccnc(CSc2nc3ccccc3[nH]2)c1Cl [Compound 21, 2-{3-Chloro-4-{N-[3-(4-benzyl-piperidino)-propyl]-N-methylamino}-2-pyridyl}-methylthio-1H-benzimidazole trihydrochloride]	< 1	
Cc1c(N(C)CCN(C)Cc2ccco2)ccnc1CSc1nc2ccccc2[nH]1.Cl.Cl.Cl [Compound 4, 2-{3-Methyl-4-{N-{2-[N-(2-furfuryl)-N-methylamino]-ethyl}-N-methylamino}-2-pyridyl}-methylthio-1H-benzimidazole trihydrochloride]		< 1
CN(CCN1CCN(c2ccccc2)CC1)c1ccnc(CSc2nc3ccccc3[nH]2)c1Cl [Compound 15, 2-{3-Chloro-4-{N-[2-(4-phenylpiperazino)-ethyl]-N-methylamino}-2-pyridyl}-methylthio-1H-benzimidazole hydrochloride]	< 1	
CN(CCN(C)c1ccnc(CSc2nc3ccccc3[nH]2)c1Cl)Cc1ccco1 [Compound 10, 2-{3-Chloro-4-{N-[2-(N-furfuryl-N-methylamino)ethyl]-N-methylamino}-2-pyridyl}-methylthio-1H-benzimidazole trihydrochloride]	< 1	
CCN(CCN(C)c1ccnc(CSc2nc3ccccc3[nH]2)c1Cl)Cc1ccccc1 [Compound 1, 2-{3-Chloro-4-{N-[2-(N-benzyl-N-ethylamino)ethyl]-N-methylamino}-2-pyridyl)-methylthio-1H-benzimidazole trihydrochloride]	< 1	
CN(CCN1CCC(c2ccccc2)CC1)c1ccnc(CSc2nc3ccccc3[nH]2)c1Cl [Compound 11, 2-{3-Chloro-4-{N-[2-(4-phenyl-piperidino)-ethyl]-N-methylamino}-2-pyridyl}-methylthio-1H-benzimidazole]	< 1	
CN(CCCN(C)c1ccnc(CSc2nc3ccccc3[nH]2)c1Cl)Cc1ccccc1 [Compound 19, 2-{3-Chloro-4-{N-[3-(N-benzyl-N-methylamino)propyl]-N-methylamino}-2-pyridyl}-methylthio-1H-benzimidazole trihydrochloride]	< 1	
